Assay results reported in patent publication US11261201B2 (priority 2018, dated 2022).
Values after ≈ are worked out from the molar mass of the structure shown. Read-outs that look alike come from different tables or passages of the source.

Columns and labels:
H37RvMA = assay: Tuberculosis Alamar Blue/Resazurin assay (MIC); assay type: cell-based; conditions: Mycobacterium tuberculosis, H37RV, WT H37Rv MTB; read-out: WT H37Rv MTB Activity
E. coli = assay: Gram negative MIC protocol (OD600, LB, 24 h); conditions: Escherichia coli
Experimental: (§1) Overnight bacterial cultures were grown in LB with no added antibiotics at 37° C. with shaking. A 1:1000 dilution of these cultures into LB was exposed to concentration gradients of compounds in 96-well plates (100 μL per well assay volume). Resulting plates were incubated at 37° C. for 24 h without shaking, and OD600 was measured at the end of the incubation. MICs were determined as the lowest concentrations at which OD600 remained at baseline.

A. baumannii = assay: Gram negative MIC protocol (OD600, LB, 24 h); conditions: Acinetobacter baumannii, read-out: MIC A. baumannii LB Media, A. baumannii, LB media, 24 h, OD600
Experimental: as §1

[1] = read-out: MIC E. coli delta-TolC LB Media, E. coli delta-TolC strain, LB media, 24 h, OD600
[2] = read-out: MIC WT E. coli LB Media, wild-type E. coli, LB media, 24 h, OD600

Compound	MIC (H37RvMA) [µM]	MIC (E. coli; [1]) [µM]	MIC (E. coli; [2]) [µM]	MIC (A. baumannii) [µM]
CC(CC1CCCCC1)NCc1ccccc1OCC(C)(C)O (centres unmarked) [B343]	> 150	4 (≈ 1.28 µg/mL)	150 (≈ 47.9 µg/mL)	150 (≈ 47.9 µg/mL)
CC(CC1CCCCC1)NCc1ccccc1OCCCN(C)C1CCCC1 (centres unmarked) [B344]	150 (≈ 58 µg/mL)	91 (≈ 35.2 µg/mL)	150 (≈ 58 µg/mL)	91 (≈ 35.2 µg/mL)
NS(=O)(=O)c1ccccc1CNCCC1CCCCC1 [B345]	> 150	20 (≈ 5.93 µg/mL)	> 150	33 (≈ 9.78 µg/mL)
CS(=O)(=O)Cc1ccccc1CNCCC1CCCCC1 [B346]	> 150	4 (≈ 1.24 µg/mL)	> 150	12 (≈ 3.71 µg/mL)
CC(CC1CCCCC1)NCc1ccccc1OCC(=O)N1CCNC1=O (centres unmarked) [B347]	> 150	4 (≈ 1.49 µg/mL)	150 (≈ 56 µg/mL)	> 150
Ic1cccc(CNCCC2CCCCC2)c1 [B348]	150 (≈ 51.5 µg/mL)	> 150	> 150	> 150
COC(=O)c1cccc(CNCCC2CCCCC2)c1 [B349]	> 150	> 150	> 150	> 150
COCc1cccc(CNCCC2CCCCC2)c1 [B350]	> 150	> 150	> 150	> 150
Clc1cccc(CNCCC2CCCCC2)c1 [B351]	> 150	> 150	> 150	> 150
c1cc(CNCCC2CCCCC2)c2[nH]ccc2c1 [B352]	91 (≈ 23.3 µg/mL)	91 (≈ 23.3 µg/mL)	91 (≈ 23.3 µg/mL)	150 (≈ 38.5 µg/mL)
COc1cccc(CNCCC2CCCCC2)c1 [B353]	> 150	> 150	> 150	> 150
c1cc(CNCCC2CCCCC2)c2sccc2c1 [B354]	150 (≈ 41 µg/mL)	150 (≈ 41 µg/mL)	> 150	> 150
NCc1cccc(CNCCC2CCCCC2)c1 [B355]	> 150	> 150	> 150	> 150
Oc1cccc(CNCCC2CCCCC2)c1 [B356]	> 150	> 150	> 150	> 150
c1cc(CNCCC2CCCCC2)c2cc[nH]c2c1 [B357]	91 (≈ 23.3 µg/mL)	20 (≈ 5.13 µg/mL)	150 (≈ 38.5 µg/mL)	91 (≈ 23.3 µg/mL)
CC(C)NC(=O)COc1ccccc1CNC(C)CC1CCCCC1 (centres unmarked) [B358]	> 150	20 (≈ 6.93 µg/mL)	> 150	> 150
C#CCNC(=O)COc1ccccc1CNC(C)CC1CCCCC1 (centres unmarked) [B359]	> 150	12 (≈ 4.11 µg/mL)	> 150	150 (≈ 51.4 µg/mL)
c1ccc(CNCCC2CCCCN2)cc1 (centres unmarked) [B360]	> 150	> 150	> 150	> 150
CC(O)COc1ccccc1CNC(C)CC1CCCCC1 (centres unmarked) [B361]	> 150	4 (≈ 1.22 µg/mL)	91 (≈ 27.8 µg/mL)	91 (≈ 27.8 µg/mL)
COC(=O)COc1ccccc1CNC(C)CC1CCCCC1 (centres unmarked) [B362]	> 150	7 (≈ 2.24 µg/mL)	150 (≈ 47.9 µg/mL)	150 (≈ 47.9 µg/mL)
CC(O)CCOc1ccccc1CNC(C)CC1CCCCC1 (centres unmarked) [B363]	> 150	3 (≈ 0.958 µg/mL)	150 (≈ 47.9 µg/mL)	150 (≈ 47.9 µg/mL)
CSCCCOc1ccccc1CNC(C)CC1CCCCC1 (centres unmarked) [B364]	91 (≈ 30.5 µg/mL)	3 (≈ 1.01 µg/mL)	150 (≈ 50.3 µg/mL)	150 (≈ 50.3 µg/mL)
CCOC(=O)COCCOc1ccccc1CNC(C)CC1CCCCC1 (centres unmarked) [B365]	> 150	5 (≈ 1.89 µg/mL)	> 150	> 150
Nc1cccc(CNCCC2CCCCC2)c1 [B366]	> 150	150 (≈ 34.9 µg/mL)	150 (≈ 34.9 µg/mL)	> 150
CC(CC1CCCCC1)NCc1ccccc1OCC1CN(C2CC2)C(=O)O1 (centres unmarked) [B367]	> 150	5 (≈ 1.93 µg/mL)	150 (≈ 58 µg/mL)	150 (≈ 58 µg/mL)
CCN1CC(COc2ccccc2CNCCC2=CCCCC2)OC1=O (centres unmarked) [B368]	> 150	20 (≈ 7.17 µg/mL)	> 150	> 150
CCN1CC(COc2ccccc2CNC(C)CC2CCCCC2)OC1=O (centres unmarked) [B369]	> 150	3 (≈ 1.12 µg/mL)	> 150	> 150

Compound	MIC (H37RvMA) [µM]	MIC (E. coli; [1]) [µM]	MIC (E. coli; [2]) [µM]	MIC (A. baumannii) [µM]
O=C1OC(COc2ccccc2CNCCC2=CCCCC2)CN1C1CC1 (centres unmarked) [B370]	> 150	12 (≈ 4.45 µg/mL)	> 150	> 150
CN1CC(COc2ccccc2CNCCC2=CCCCC2)OC1=O (centres unmarked) [B371]	> 150	33 (≈ 11.4 µg/mL)	> 150	> 150
CC(CC1CCCCC1)NCc1ccccc1OCC1CN(C)C(=O)O1 (centres unmarked) [B372]	> 150	5 (≈ 1.8 µg/mL)	150 (≈ 54.1 µg/mL)	> 150
NC(=O)Nc1ccccc1CNCCC1CCCCC1 [B373]	> 150	150 (≈ 41.3 µg/mL)	> 150	> 150
c1cc(CNCCC2CCCCC2)c2c(c1)OCO2 [B374]	150 (≈ 39.2 µg/mL)	> 150	> 150	> 150
OCc1cccc(CNCCC2CCCCC2)c1 [B375]	> 150	> 150	> 150	> 150
OB(O)Cc1ccccc1CNCCC1CCCCC1 [B376, 2-((2-cyclohexylethylamino)methyl)benzylboronic acid]	> 150	91 (≈ 25 µg/mL)	150 (≈ 41.3 µg/mL)	> 150
CC(CC1CCCCC1)NCc1ccccc1OCC1CNC(=O)O1 (centres unmarked) [B377]	> 150	2.3 (≈ 0.797 µg/mL)	75 (≈ 26 µg/mL)	150 (≈ 52 µg/mL)
CC(CC1CCCCC1)NCc1ccccc1CCCO (centres unmarked) [B378, 3-(2-((1-cyclohexylpropan-2-ylamino)methyl)phenyl)propan-1-ol]	150 (≈ 43.4 µg/mL)	7 (≈ 2.03 µg/mL)	91 (≈ 26.3 µg/mL)	150 (≈ 43.4 µg/mL)
NS(=O)(=O)Cc1ccccc1CNCCC1CCCCC1 [B380]	> 150	12 (≈ 3.73 µg/mL)	33 (≈ 10.2 µg/mL)	> 150
CC(CC1CCCCC1)NCc1ccccc1OCc1ccccc1Br (centres unmarked) [B381]	20.2 (≈ 8.41 µg/mL)	4 (≈ 1.67 µg/mL)	55 (≈ 22.9 µg/mL)	55 (≈ 22.9 µg/mL)
CC(CC1CCCCC1)NCc1ccccc1OCc1ccccc1Cl (centres unmarked) [B382]	12.2 (≈ 4.54 µg/mL)	3 (≈ 1.12 µg/mL)	55 (≈ 20.5 µg/mL)	55 (≈ 20.5 µg/mL)
CC(CC1CCCCC1)NCc1ccccc1OCc1cccc(F)c1 (centres unmarked) [B383]	12.2 (≈ 4.34 µg/mL)	2 (≈ 0.711 µg/mL)	55 (≈ 19.6 µg/mL)	91 (≈ 32.4 µg/mL)
Cc1ccccc1COc1ccccc1CNC(C)CC1CCCCC1 (centres unmarked) [B384]	20.2 (≈ 7.1 µg/mL)	4 (≈ 1.41 µg/mL)	91 (≈ 32 µg/mL)	55 (≈ 19.3 µg/mL)
CC(CC1CCCCC1)NCc1ccccc1OC1CCC1 (centres unmarked) [B385, N-(2-cyclobutoxybenzyl)-1-cyclohexylpropan-2-amine]	90.9 (≈ 27.4 µg/mL)	2 (≈ 0.603 µg/mL)	91 (≈ 27.4 µg/mL)	150 (≈ 45.2 µg/mL)
CC(CC1CCCCC1)NCc1ccccc1OCC1CC2CCC1C2 (centres unmarked) [B386, N-(2-(bicyclo[2.2.1]heptan-2-ylmethoxy)benzyl)-1-cyclohexylpropan-2-amine]	20.2 (≈ 7.18 µg/mL)	5 (≈ 1.78 µg/mL)	> 150	55 (≈ 19.6 µg/mL)
CC(CC1CCCCC1)NCc1ccccc1OC1CCCCC1 (centres unmarked) [B387, 1-cyclohexyl-N-(2-(cyclohexyloxy)benzyl)propan-2-amine]	33.4 (≈ 11 µg/mL)	3 (≈ 0.989 µg/mL)	91 (≈ 30 µg/mL)	55 (≈ 18.1 µg/mL)
CC(CC1CCCCC1)NCc1ccccc1OCc1ccccc1I (centres unmarked) [B388, 1-cyclohexyl-N-(2-((2-iodobenzyl)oxy)benzyl)propan-2-amine]	33.4 (≈ 15.5 µg/mL)	7 (≈ 3.24 µg/mL)	150 (≈ 69.5 µg/mL)	33 (≈ 15.3 µg/mL)
CC(CC1CCCCC1)NCc1ccccc1OC1CCCCC1C (centres unmarked) [B389, 1-cyclohexyl-N-(2-((2-methylcyclohexyl)oxy)benzyl)propan-2-amine]	33.4 (≈ 11.5 µg/mL)	3 (≈ 1.03 µg/mL)	> 150	91 (≈ 31.3 µg/mL)
CC(CC1CCCCC1)NCc1ccccc1OC1CC2CCC1C2 (centres unmarked) [B390, N-(2-(bicyclo[2.2.1]heptan-2-yloxy)benzyl)-1-cyclohexylpropan-2-amine]	20.2 (≈ 6.9 µg/mL)	3 (≈ 1.02 µg/mL)	150 (≈ 51.2 µg/mL)	55 (≈ 18.8 µg/mL)
CC1CCCC(Oc2ccccc2CNC(C)CC2CCCCC2)C1 (centres unmarked) [B391, 1-cyclohexyl-N-(2-((3-methylcyclohexyl)oxy)benzyl)propan-2-amine]	20.2 (≈ 6.94 µg/mL)	3 (≈ 1.03 µg/mL)	150 (≈ 51.5 µg/mL)	91 (≈ 31.3 µg/mL)
CCC1CCCCC1Oc1ccccc1CNC(C)CC1CCCCC1 (centres unmarked) [B392, 1-cyclohexyl-N-(2-((2-ethylcyclohexyl)oxy)benzyl)propan-2-amine]	33.4 (≈ 11.9 µg/mL)	7 (≈ 2.5 µg/mL)	> 150	150 (≈ 53.6 µg/mL)
CC(CC1CCCCC1)NCc1ccccc1OC1CC2CC1C1CCCC21 (centres unmarked) [B393, 1-cyclohexyl-N-(2-((octahydro-1H-4,7-methanoinden-5-yl)oxy)benzyl)propan-2-amine]	20.2 (≈ 7.71 µg/mL)	7 (≈ 2.67 µg/mL)	> 150	150 (≈ 57.2 µg/mL)
CC1CCC(Oc2ccccc2CNC(C)CC2CCCCC2)CC1 (centres unmarked) [B394, 1-cyclohexyl-N-(2-((4-methylcyclohexyl)oxy)benzyl)propan-2-amine]	20.2 (≈ 6.94 µg/mL)	3 (≈ 1.03 µg/mL)	150 (≈ 51.5 µg/mL)	55 (≈ 18.9 µg/mL)
CC(CC1CCCCC1)NCc1ccccc1OC1CC2CCC1CC2 (centres unmarked) [B395, N-(2-(bicyclo[2.2.2]octan-2-yloxy)benzyl)-1-cyclohexylpropan-2-amine]	20.2 (≈ 7.18 µg/mL)	3 (≈ 1.07 µg/mL)	> 150	33 (≈ 11.7 µg/mL)
CC(CC1CCCCC1)NCc1ccccc1OC1CCC(F)(F)CC1 (centres unmarked) [B396, 1-cyclohexyl-N-(2-((4,4-difluorocyclohexyl)oxy)benzyl)propan-2-amine]	55.1 (≈ 20.1 µg/mL)	3 (≈ 1.1 µg/mL)	150 (≈ 54.8 µg/mL)	150 (≈ 54.8 µg/mL)
